Reference: patent publication US20190136321A1, “USE OF TRANSLATIONAL PROFILING TO IDENTIFY TARGET MOLECULES FOR THERAPEUTIC TREATMENT” (The Regents of The University of California, priority 2013, published 2019)

Tests used:
Assay type in all cases: cell-based, human
PC3 cells [1] = assay: Matrigel invasion assay; conditions: 6-hr pre-treatment followed by 6 hr of cell invasion
Excerpt: BioCoat Matrigel Invasion Chambers (modified Boyden Chamber Assay; BD Biosciences) were used according to the manufacturer's instructions.

[2] = system: MDA-MB-361, SKOV3 and ACHN cells; assay: Western blot and qPCR of 4-gene invasion signature in metastatic cell lines; conditions: MDA-MB-361, SKOV3, ACHN cells, 48-hour treatment, 200 nM
Experimental: Western blot analysis was performed as previously described (Hsieh et al., Cancer Cell 17:249-261 (2010)) with antibodies specific to phospho-AKT^S473 (Cell Signaling), AKT (Cell Signaling), phospho-p70S6K^T389 (Cell Signaling), phospho-rpS6^S240/244 (Cell Signaling), rpS6 (Cell Signaling), phospho-4EBP1^T37/46 (Cell Signaling), 4EBP1 (Cell Signaling), 4EBP2 (Cell Signaling), YB1 (Cell Signaling), CD44 (Cell Signaling), LEF1 (Cell Signaling), PTEN (Cell Signaling), eEF2 (Cell Signaling), GAPDH (Cell Signaling), vimentin (BD Biosciences), eIF4E (BD Biosciences), Flag (Sigma), β-actin (Sigma), MTA1 (Santa Cruz Biotechnology), Twist (Santa Cruz Biotechnology), rpL28 (Santa Cruz Biotechnology), HA (Covance) and rictor (Bethyl Laboratory).
RNA was isolated using the manufacturer's protocol for RNA extraction with TRIzol Reagent (Invitrogen) using the Pure Link RNA mini kit (Invitrogen). RNA was DNase-treated with Pure Link Dnase (Invitrogen). DNase-treated RNA was transcribed to cDNA with SuperScript III First-Strand Synthesis System for RT-PCR (Invitrogen), and 1 μl of cDNA was used to run a SYBR green detection qPCR assay (SYBR Green Supermix and MyiQ2, Biorad). Primers were used at 200 nM.

PC3 cells [3] = assay: Polysome analysis; conditions: 100 nM, 3-hour
Experimental: Cells were re-suspended in PBS containing 100 μg ml^−1 cycloheximide (Sigma) and incubated on ice for 10 min. Cells were centrifuged at 300 g for 5 min at 4° C. and lysed in 10 mM Tris-HCl pH 8, 140 mM NaCl, 5 mM MgCl2, 640 U ml^−1 Rnasin, 0.05% NP-40, 250 μg ml^−1 cycloheximide, 20 mM DTT, and protease inhibitors. Samples were incubated for 20 min on ice, then centrifuged once for 5 min at 3,300 g and once for 5 min at 9,300 g, isolating the supernatant after each centrifugation. Lysates were loaded onto 10-50% sucrose gradients containing 0.1 mg ml^−1 heparin and 2 mM DTT and centrifuged at 37,000 r.p.m. for 2.5 hr at 4° C. The sample was subsequently fractionated on a gradient fractionation system (ISCO). RNA was extracted from all fractions and run on a TBE-agarose gel to visualize 18S and 28S rRNA.

LNCaP and A498 cells = assay: Apoptosis analysis (Annexin V/PI); conditions: 200 nM, 48 hours
Excerpt: Appropriately treated LNCaP and A498 cells were labeled with Annexin V-FITC (BD Biosciences) and propidium iodide (Sigma) following the manufacturer's instructions. PI/Annexin data was acquired using a BD FACS Caliber (BD Biosciences) and analyzed with FlowJo (v.9.1).

CC(C)n1nc(-c2ccc3oc(N)nc3c2)c2c(N)ncnc21 [ATP site inhibitor of mTOR]
invasive potential of PC3 prostate cancer cells (PC3 cells [1]): decreased
4-gene invasion signature response in metastatic cell lines [2]: responsive
association of YB1 and rpS19 mRNAs in polysome fractions (PC3 cells [3]): differential association
β-actin mRNA association in polysome fractions (PC3 cells [3]): no change
programmed cell death in multiple cancer cell lines (LNCaP and A498 cells): induced
